Source: patent publication EP2776398B1, “SUBSTITUTED PYRAZOLYL-BASED UREA DERIVATIVES AS VANILLOID RECEPTOR LIGANDS” (Medifron DBT Inc., priority 2011, dated 2013)

The compounds below were run against T1, vanilloid receptor 1 (VR1/TRPV1 receptor) (Homo sapiens, UniProt Q8NER1) (assay: Functional testing on vanilloid receptor 1: FLIPR Ca2+ influx assay against capsaicin (Cap) in transfected CHO K1 cells (pharmacological method II)). Details: @ 1µM; human VR1 in CHO K1 cells; capsaicin; relative to maximum inhibition with 10 µM capsazepine; read-out: inhibition (as a percentage), printed in column (f) Ki (human being) [nM] Cap.
T1 construct: expressed in transfected cells; host or cells: CHO K1 cells (ECACC), stably transfected
T1 sequence (Q8NER1 whole entry): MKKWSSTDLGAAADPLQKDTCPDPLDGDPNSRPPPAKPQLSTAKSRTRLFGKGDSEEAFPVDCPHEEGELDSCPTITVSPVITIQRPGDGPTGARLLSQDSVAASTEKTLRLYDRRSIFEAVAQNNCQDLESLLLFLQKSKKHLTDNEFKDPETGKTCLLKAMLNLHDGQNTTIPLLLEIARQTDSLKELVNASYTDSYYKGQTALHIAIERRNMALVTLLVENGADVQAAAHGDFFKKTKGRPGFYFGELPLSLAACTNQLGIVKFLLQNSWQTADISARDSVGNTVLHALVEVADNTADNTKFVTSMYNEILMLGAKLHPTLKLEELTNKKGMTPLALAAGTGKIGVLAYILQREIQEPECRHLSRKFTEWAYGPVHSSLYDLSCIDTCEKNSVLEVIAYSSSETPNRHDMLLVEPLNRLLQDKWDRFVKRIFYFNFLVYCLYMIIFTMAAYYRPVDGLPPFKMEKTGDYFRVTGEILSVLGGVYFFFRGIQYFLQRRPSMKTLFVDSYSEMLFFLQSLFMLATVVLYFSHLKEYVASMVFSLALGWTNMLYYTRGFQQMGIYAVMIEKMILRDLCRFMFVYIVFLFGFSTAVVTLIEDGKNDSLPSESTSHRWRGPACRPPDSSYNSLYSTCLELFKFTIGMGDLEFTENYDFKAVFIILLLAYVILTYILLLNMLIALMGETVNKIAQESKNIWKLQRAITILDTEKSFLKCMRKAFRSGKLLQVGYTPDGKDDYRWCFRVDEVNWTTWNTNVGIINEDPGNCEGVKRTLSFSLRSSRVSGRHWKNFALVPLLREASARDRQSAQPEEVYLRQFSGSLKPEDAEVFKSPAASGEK
Assay type: cell-based
Parameters: key to (f) Ki (human being) [nM] Cap: agonist classification: AG = agonist
Source text: […]

Compound | inhibition at 1 µM
CC(C(=O)NCc1cc(C(C)(C)C)nn1-c1ccc(F)cc1)c1ccc(COCCO)c(F)c1 (stereo not shown) [A124, N-[[5-tert-Butyl-2-(4-fluorophenyl)-2H-pyrazol-3-yl]-methyl]-2-[3-fluoro-4-(2-hydroxy-ethoxy-methyl)-phenyl]-propionamide] | 33%

Same assay, conditions: human VR1 in CHO K1 cells; AG printed instead of a Ki

Compound | (f) Ki (human being) [nM] Cap: agonist classification
CC(O)c1ccc(C(C)C(=O)NCc2cc(C(C)(C)C)nn2-c2cccc(Cl)c2)cc1F (stereo not shown) [A98, N-[[5-tert-Butyl-2-(3-chlorophenyl)-2H-pyrazol-3-yl]-methyl]-2-[3-fluoro-4-(1-hydroxy-ethyl)-phenyl]-propionamide] | AG

Same assay, conditions: read-out: (f) Ki (human being) [nM] Cap

Compound | Ki
O=C(NCc1cc(C(F)(F)F)nn1-c1cccc(Cl)c1)Nc1ccc(CO)c(Cl)c1 [A97, 1-[3-Chloro-4-(hydroxymethyl)-phenyl]-3-[[2-(3-chlorophenyl)-5-(trifluoromethyl)-2H-pyrazol-3-yl]-methyl]-urea] | 11 nM
CC(O)c1ccc(C(C)C(=O)NCc2cc(C(F)(F)F)nn2-c2cccc(Cl)c2)cc1F (stereo not shown) [A99, N-[[2-(3-Chlorophenyl)-5-(trifluoromethyl)-2H-pyrazol-3-yl]-methyl]-2-[3-fluoro-4-(1-hydroxy-ethyl)-phenyl]-propionamide] | 6 nM
CC(C(=O)NCc1cc(C(C)(C)C)nn1-c1cccc(Cl)c1)c1ccc(C2(O)CC2)c(F)c1 (stereo not shown) [A100, N-[[5-tert-Butyl-2-(3-chlorophenyl)-2H-pyrazol-3-yl]-methyl]-2-[3-fluoro-4-(1-hydroxy-cyclopropyl)-phenyl]-propionamide] | 0.7 nM
CC(C(=O)NCc1cc(C(F)(F)F)nn1-c1cccc(Cl)c1)c1ccc(C2(O)CC2)c(F)c1 (stereo not shown) [A101, N-[[2-(3-Chlorophenyl)-5-(trifluoromethyl)-2H-pyrazol-3-yl]-methyl]-2-[3-fluoro-4-(1-hydroxy-cyclopropyl)-phenyl]-propionamide] | 4 nM
CC(C(=O)NCc1cc(C(F)(F)F)nn1-c1cccc(F)c1)c1ccc(C2(O)CC2)c(F)c1 (stereo not shown) [A102, 2-[3-Fluoro-4-(1-hydroxy-cyclopropyl)-phenyl]-N-[[2-(3-fluorophenyl)-5-(trifluoromethyl)-2H-pyrazol-3-yl]-methyl]-propionamide] | 15 nM
COc1cccc(-n2nc(C(F)(F)F)cc2CNC(=O)C(C)c2ccc(C3(O)CC3)c(F)c2)c1 (stereo not shown) [A103, 2-[3-Fluoro-4-(1-hydroxy-cyclopropyl)-phenyl]-N-[[2-(3-methoxyphenyl)-5-(trifluoromethyl)-2H-pyrazol-3-yl]-methyl]-propionamide] | 22 nM
CC(C(=O)NCc1cc(C(F)(F)F)nn1-c1ccc(F)c(F)c1)c1ccc(C2(O)CC2)c(F)c1 (stereo not shown) [A104, N-[[2-(3,4-Difluoro-phenyl)-5-(trifluoromethyl)-2H-pyrazol-3-yl]-methyl]-2-[3-fluoro-4-(1-hydroxy-cyclopropyl)-phenyl]-propionamide] | 12 nM
CC(C)(C)c1cc(CNC(=O)Nc2ccc(C3(O)CC3)c(F)c2)n(-c2cccc(Cl)c2)n1 [A105, 1-[[5-tert-Butyl-2-(3-chlorophenyl)-2H-pyrazol-3-yl]-methyl]-3-[3-fluoro-4-(1-hydroxy-cyclopropyl)-phenyl]-urea] | 19 nM
O=C(NCc1cc(C(F)(F)F)nn1-c1cccc(Cl)c1)Nc1ccc(C2(O)CC2)c(F)c1 [A106, 1-[[2-(3-Chlorophenyl)-5-(trifluoromethyl)-2H-pyrazol-3-yl]-methyl]-3-[3-fluoro-4-(1-hydroxy-cyclopropyl)-phenyl]-urea] | 31 nM
CC(C)(C)c1cc(CNC(=O)Nc2ccc(C3(O)COC3)cc2)n(-c2cccc(Cl)c2)n1 [A107, 1-[[5-tert-Butyl-2-(3-chlorophenyl)-2H-pyrazol-3-yl]-methyl]-3-[4-(3-hydroxy-oxetan-3-yl)-phenyl]-urea] | 45 nM
O=C(NCc1cc(C(F)(F)F)nn1-c1cccc(Cl)c1)Nc1ccc(C2(O)COC2)cc1 [A108, 1-[[2-(3-Chlorophenyl)-5-(trifluoromethyl)-2H-pyrazol-3-yl]-methyl]-3-[4-(3-hydroxy-oxetan-3-yl)-phenyl]-urea] | 48 nM
CC(C)(C)c1cc(CNC(=O)Nc2ccc(C3(O)COC3)c(F)c2)n(-c2cccc(Cl)c2)n1 [A109, 1-[[5-tert-Butyl-2-(3-chlorophenyl)-2H-pyrazol-3-yl]-methyl]-3-[3-fluoro-4-(3-hydroxy-oxetan-3-yl)-phenyl]-urea] | 43 nM
COCCOCc1ccc(C(C)C(=O)NCc2cc(C(F)(F)F)nn2-c2cccc(Cl)c2)cc1F (stereo not shown) [A111, N-[[2-(3-Chlorophenyl)-5-(trifluoromethyl)-2H-pyrazol-3-yl]-methyl]-2-[3-fluoro-4-(2-methoxy-ethoxy-methyl)-phenyl]-propionamide] | 38 nM
COCCOCc1ccc(C(C)C(=O)NCc2cc(C(F)(F)F)nn2-c2ccc(F)c(Cl)c2)cc1F (stereo not shown) [A112, N-[[2-(3-Chloro-4-fluoro-phenyl)-5-(trifluoromethyl)-2H-pyrazol-3-yl]-methyl]-2-[3-fluoro-4-(2-methoxy-ethoxy-methyl)-phenyl]-propionamide] | 79 nM
O=C(Cc1ccc(COCCO)c(F)c1)NCc1cc(C(F)(F)F)nn1-c1cccc(Cl)c1 [A113, N-[[2-(3-Chlorophenyl)-5-(trifluoromethyl)-2H-pyrazol-3-yl]-methyl]-2-[3-fluoro-4-(2-hydroxy-ethoxy-methyl)-phenyl]-acetamide] | 63 nM
COc1cccc(-n2nc(C(F)(F)F)cc2CNC(=O)C(C)c2ccc(COCCO)c(F)c2)c1 (stereo not shown) [A114, 2-[3-Fluoro-4-(2-hydroxy-ethoxy-methyl)-phenyl]-N-[[2-(3-methoxyphenyl)-5-(trifluoromethyl)-2H-pyrazol-3-yl]-methyl]-propionamide] | 46 nM
CC(C)c1cccc(-n2nc(C(F)(F)F)cc2CNC(=O)C(C)c2ccc(COCCO)c(F)c2)c1 (stereo not shown) [A115, 2-[3-Fluoro-4-(2-hydroxy-ethoxy-methyl)-phenyl]-N-[[2-(3-isopropyl-phenyl)-5-(trifluoromethyl)-2H-pyrazol-3-yl]-methyl]-propionamide] | 3 nM
CC(C(=O)NCc1cc(C(C)(C)C)nn1-c1cccc(F)c1)c1ccc(COCCO)c(F)c1 (stereo not shown) [A116, N-[[5-tert-Butyl-2-(3-fluorophenyl)-2H-pyrazol-3-yl]-methyl]-2-[3-fluoro-4-(2-hydroxy-ethoxy-methyl)-phenyl]-propionamide] | 18 nM
CC(C(=O)NCc1cc(C(C)(C)C)nn1-c1cccc(Cl)c1)c1ccc(COCCO)c(F)c1 (stereo not shown) [A117, N-[[5-tert-Butyl-2-(3-chlorophenyl)-2H-pyrazol-3-yl]-methyl]-2-[3-fluoro-4-(2-hydroxy-ethoxy-methyl)-phenyl]-propionamide] | 9 nM
CC(C(=O)NCc1cc(C(F)(F)F)nn1-c1cccc(Cl)c1)c1ccc(COCCO)c(F)c1 (stereo not shown) [A118, N-[[2-(3-Chlorophenyl)-5-(trifluoromethyl)-2H-pyrazol-3-yl]-methyl]-2-[3-fluoro-4-(2-hydroxy-ethoxy-methyl)-phenyl]-propionamide] | 27 nM
C[C@H](C(=O)NCc1cc(C(F)(F)F)nn1-c1cccc(Cl)c1)c1ccc(COCCO)c(F)c1 [A119, (2S)-N-[[2-(3-Chlorophenyl)-5-(trifluoromethyl)-2H-pyrazol-3-yl]-methyl]-2-[3-fluoro-4-(2-hydroxy-ethoxy-methyl)-phenyl]-propionamide] | 57 nM
C[C@@H](C(=O)NCc1cc(C(F)(F)F)nn1-c1cccc(Cl)c1)c1ccc(COCCO)c(F)c1 [A120, (2R)-N-[[2-(3-Chlorophenyl)-5-(trifluoromethyl)-2H-pyrazol-3-yl]-methyl]-2-[3-fluoro-4-(2-hydroxy-ethoxy-methyl)-phenyl]-propionamide] | 5 nM
CC(C(=O)NCc1cc(C(F)(F)F)nn1-c1ccc(F)c(Cl)c1)c1ccc(COCCO)c(F)c1 (stereo not shown) [A121, N-[[2-(3-Chloro-4-fluoro-phenyl)-5-(trifluoromethyl)-2H-pyrazol-3-yl]-methyl]-2-[3-fluoro-4-(2-hydroxy-ethoxy-methyl)-phenyl]-propionamide] | 20 nM
CC(C(=O)NCc1cc(C(F)(F)F)nn1-c1cccc(F)c1)c1ccc(COCCO)c(F)c1 (stereo not shown) [A122, 2-[3-Fluoro-4-(2-hydroxy-ethoxy-methyl)-phenyl]-N-[[2-(3-fluorophenyl)-5-(trifluoromethyl)-2H-pyrazol-3-yl]-methyl]-propionamide] | 45 nM
Cc1cccc(-n2nc(C(F)(F)F)cc2CNC(=O)C(C)c2ccc(COCCO)c(F)c2)c1 (stereo not shown) [A123, 2-[3-Fluoro-4-(2-hydroxy-ethoxy-methyl)-phenyl]-N-[[2-(m-tolyl)-5-(trifluoromethyl)-2H-pyrazol-3-yl]-methyl]-propionamide] | 24 nM
CC(C(=O)NCc1cc(C(C)(C)C)nn1-c1cccc(OC(F)(F)F)c1)c1ccc(COCCO)c(F)c1 (stereo not shown) [A125, N-[[5-tert-Butyl-2-[3-(trifluoromethyloxy)-phenyl]-2H-pyrazol-3-yl]-methyl]-2-[3-fluoro-4-(2-hydroxy-ethoxy-methyl)-phenyl]-propionamide] | 15 nM
CC(C(=O)NCc1cc(C(F)(F)F)nn1-c1cc(F)cc(F)c1)c1ccc(COCCO)c(F)c1 (stereo not shown) [A126, N-[[2-(3,5-Difluoro-phenyl)-5-(trifluoromethyl)-2H-pyrazol-3-yl]-methyl]-2-[3-fluoro-4-(2-hydroxy-ethoxy-methyl)-phenyl]-propionamide] | 79 nM
O=C(NCc1cc(C(F)(F)F)nn1-c1cccc(Cl)c1)Nc1ccc(COCCO)c(F)c1 [A127, 1-[[2-(3-Chlorophenyl)-5-(trifluoromethyl)-2H-pyrazol-3-yl]-methyl]-3-[3-fluoro-4-(2-hydroxy-ethoxy-methyl)-phenyl]-urea] | 40 nM
COCCOCc1ccc(NC(=O)NCc2cc(C(F)(F)F)nn2-c2cccc(Cl)c2)cc1F [A128, 1-[[2-(3-Chlorophenyl)-5-(trifluoromethyl)-2H-pyrazol-3-yl]-methyl]-3-[3-fluoro-4-(2-methoxy-ethoxy-methyl)-phenyl]-urea] | 67 nM
